The molecules below were run against T1, human kinase Mps-1 (Homo sapiens, UniProt P33981) (assay: Mps-1 kinase assay (TR-FRET)). Details: N-terminally GST-tagged human full length recombinant Mps-1; 10 μM ATP; 1 μM peptide substrate; 15 min pre-incubation; 60 min at 22° C.
T1 construct: N-terminally GST-tagged human full length recombinant Mps-1 kinase; GST (N); purchased Invitrogen, Karslruhe, Germany PV4071
T1 sequence (P33981 1-857): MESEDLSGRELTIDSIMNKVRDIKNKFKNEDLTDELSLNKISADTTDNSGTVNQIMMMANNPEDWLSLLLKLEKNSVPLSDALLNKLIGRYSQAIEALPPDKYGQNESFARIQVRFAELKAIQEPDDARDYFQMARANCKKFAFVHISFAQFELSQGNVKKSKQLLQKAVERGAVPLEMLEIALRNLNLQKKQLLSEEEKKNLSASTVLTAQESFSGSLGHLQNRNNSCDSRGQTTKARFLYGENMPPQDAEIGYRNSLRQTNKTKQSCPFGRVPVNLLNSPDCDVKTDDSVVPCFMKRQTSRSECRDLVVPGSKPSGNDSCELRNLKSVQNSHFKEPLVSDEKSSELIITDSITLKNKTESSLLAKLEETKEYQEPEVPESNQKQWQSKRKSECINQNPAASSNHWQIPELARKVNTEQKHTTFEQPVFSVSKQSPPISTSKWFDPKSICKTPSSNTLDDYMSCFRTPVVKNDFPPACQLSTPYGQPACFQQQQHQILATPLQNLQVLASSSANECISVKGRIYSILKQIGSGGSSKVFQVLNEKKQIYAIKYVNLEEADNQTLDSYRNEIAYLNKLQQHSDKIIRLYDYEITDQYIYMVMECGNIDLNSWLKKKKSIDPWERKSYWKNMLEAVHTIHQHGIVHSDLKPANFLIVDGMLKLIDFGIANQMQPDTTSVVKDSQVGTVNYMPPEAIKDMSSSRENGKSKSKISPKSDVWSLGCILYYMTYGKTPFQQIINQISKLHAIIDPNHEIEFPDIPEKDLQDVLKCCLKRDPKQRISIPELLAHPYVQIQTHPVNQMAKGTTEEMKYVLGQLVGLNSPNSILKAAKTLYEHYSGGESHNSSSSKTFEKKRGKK
Format: biochemical
Method in brief: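 TR-FRET read-out: after 1 h binding at 22° C, Eu-labelled anti-phospho-Ser/Thr antibody transfers to SA-XLent on the phosphorylated biotinylated peptide. The enzyme is GST-tagged full-length human Mps-1, typically about 1 nM final, in the linear range.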

`COc1ccc2cc(-c3cn4c(-c5ccc(C(=O)NC6CC6)cc5)cnc4c(NCC(C)C)n3)ccc2c1` [Example 1-79, N-cyclopropyl-4-{6-(6-methoxynaphthalen-2-yl)-8-[(2-methylpropyl)amino]imidazo[1,2-a]pyrazin-3-yl}benzamide] and `CC(C)CNc1nc(-c2ccc(OC(C)C)cc2)cn2c(-c3ccc(C(=O)NC4CC4)cc3)cnc12` [Example 1-58, N-cyclopropyl-4-{8-[(2-methylpropyl)amino]-6-[4-(propan-2-yloxy)phenyl]imidazo[1,2-a]pyrazin-3-yl}benzamide] are within 1.5-fold of each other in IC50: 32.7 nM for the first, 27 nM for the second.

Going from `Cn1nccc1CNc1nc(-c2ccc(F)cc2)cn2c(-c3ccc(C(=O)NC4CC4)c(Cl)c3)cnc12` [Example 1-107, 2-chloro-N-cyclopropyl-4-[6-(4-fluorophenyl)-8-{[(1-methyl-1H-pyrazol-5-yl)methyl]amino}imidazo[1,2-a]pyrazin-3-yl]benzamide] to `CC(C)(O)CNc1nc(-c2ccc(F)cc2)cn2c(-c3ccc(C(=O)NC4CC4)c(F)c3)cnc12` [Example 1-115, N-cyclopropyl-2-fluoro-4-{6-(4-fluorophenyl)-8-[(2-hydroxy-2-methyl-propyl)amino]imidazo [1,2-a]pyrazin-3-yl} benzamide], the IC50 falls from 13.2 nM to 5.4 nM (2.4-fold).

`CC(C)CNc1nc(-c2cccc(-c3ccccc3)c2)cn2c(-c3ccc(C(=O)NC4CC4)cc3)cnc12` [Example 1-69, 4-{6-(biphenyl-3-yl)-8-[(2-methylpropyl)amino]imidazo[1,2-a]pyrazin-3-yl}-N-cyclopropyl-benzamide] and `Cc1ccc(-c2cn3c(-c4ccc(C(=O)NC5CC5)cc4)cnc3c(NCC(C)C)n2)cc1Cl` [Example 1-80, 4-{6-(3-chloro-4-methyl-phenyl)-8-[(2-methylpropyl)amino]imidazo [1,2-a]pyrazin-3-yl}-N-cyclopropylbenzamide] are within 1.5-fold of each other in IC50: 19.9 nM for the first, 20.7 nM for the second.

Compared with `Cc1cc(-c2cnc3c(NCCC(C)CO)nc(-c4ccc(F)cc4)cn23)ccc1C(=O)NC1CC1` (stereo not shown) [Example 10-5, N-cyclopropyl-4-{6-(4-fluorophenyl)-8-[(4-hydroxy-3-methylbutyl)amino]imidazo[1,2-a]pyrazin-3-yl}-2-methyl-benzamide], `N#CCCNc1nc(-c2ccccc2)cn2c(-c3ccc(C(=O)NC4CC4)cc3)cnc12` [Example 2-35, 4-{8-[(2-cyanoethyl)amino]-6-phenylimidazo[1,2-a]pyrazin-3-yl}-N-cyclopropyl-benzamide] is 4.8-fold lower in IC50: 4.8 nM for the first, 1 nM for the second.

Compared with `CC(C)CNc1nc(-c2ccccc2C(F)(F)F)cn2c(-c3ccc(C(=O)NC4CC4)cc3)cnc12` [Example 1-43, N-cyclopropyl-4-{8-[(2-methylpropyl)amino]-6-[2-(trifluoromethyl)phenyl]imidazo[1,2-a]pyrazin-3-yl}benzamide], `CC(C)(O)CNc1nc(-c2ccccc2CO)cn2c(-c3ccc(C(=O)NC4CC4)cc3)cnc12` [Example 1-132, N-cyclopropyl-4-{6-[2-(hydroxymethyl)phenyl]-8-[(2-hydroxy-2-methylpropyl)amino]imidazo[1,2-a]pyrazin-3-yl}benzamide] is 1.6-fold lower in IC50: 16.3 nM for the first, 10.3 nM for the second. The second is the more potent here.

Compared with `O=C(NC1CC1)c1ccc(-c2cnc3c(NCC4CCCCO4)nc(-c4ccccc4)cn23)cc1` (stereo not shown) [Example 2-65, N-cyclopropyl-4-{6-phenyl-8-[(tetrahydro-2H-pyran-2-ylmethyl)amino]imidazo[1,2-a]pyrazin-3-yl}benzamide], `O=C(NC1CC1)c1ccc(-c2cnc3c(NCCOc4ccccc4)nc(-c4ccccc4)cn23)cc1` [Example 2-40, N-cyclopropyl-4-{8-[(2-phenoxyethyl)amino]-6-phenylimidazo[1,2-a]pyrazin-3-yl}benzamide] is 7.5-fold higher in IC50: 1.3 nM for the first, 9.8 nM for the second.

In the case of `O=C(NC1CC1)c1ccc(-c2cnc3c(NCCCc4ccccc4)nc(-c4ccccc4)cn23)cc1` [Example 2-31, N-cyclopropyl-4-{6-phenyl-8-[(3-phenylpropyl)amino]imidazo[1,2-a]pyrazin-3-yl} benzamide], the IC50 is reported as 34.8 nM.
